Measurements taken from patent US6001808A, “Method of treating herpes virus infections with spermostatic gramicidin” (Metatron, Inc., priority 1997, dated 1999).
≈ marks a conversion by molar mass, not a printed value. Like-named read-outs stand apart in the source and are kept apart here.

Key:
[1] = tested on: HSV-1; test: HSV antigen ELISA, viral yield in WI-38 fibroblasts at 24 hours; type: cell-based, herpes simplex virus type 1 (HSV-1)
Experimental: (§1) The effect of gramicidin on the replication of herpes simplex viruses (HSV) type 1 and 2 has been examined and compared to the effect of acyclovir--the nucleoside analog used in the prior art for the therapy of herpes virus infections. Human WI-38 fibroblasts were inoculated with either type of HSV in the presence of serial dilutions of gramicidin (10-0.001 mcg/ml) and reduction in viral yield was measured at 24 hours by ELISA. […] The average 50% inhibitory dose (IC50) of gramicidin against 3 HSV-1 and 4 HSV-2 solates was equal to 0.3 mcg/ml and was similar to the efficacy of the anti-HSV agent acyclovir (ACV). The IC50 of a single dose of gramicidin required to protect WI-38 from cytolytic effect of HSV was 10 mcg/ml at day 5 postinfection. Importantly, gramicidin suppressed the replication of ACV-resistant thymidine kinase and polymerase HSV mutants at doses effective against ACV-sensitive strains.
(§2) Human embryonic lung fibroblasts WI-38 (CCL-75, ATCC, Rockville, Md.) were grown in RPMI medium 1640 with 10% FBS, L-glutamine, and penicillin/streptomycin (GIBCO, Grand Island, N.Y.) at 37° C. with 5% CO2 air atmosphere. Herpes viruses that were tested for susceptibility to gramicidin are own in Table 1.
(§3) One day prior to the assay WI-38 monolayers were trypsinized with 0.25% trypsin/EDTA (Sigma) and plated in 96-well microculture plates at seeding concentration 10^5 cells per well. The next day triplicate wells of WI-38 monolayers were exposed to serial 10-fold dilutions (range 10 mcg/ml-1 ng/ml) of gramicidin or ACV. Positive control wells and drug-exposed wells containing 180 mcl of medium received 20 mcl ahquots of HSV-1 or HSV-2 preparation at 5,000 TCID50 per well and were incubated further for 24 hours. Thereupon, the supernatants from infected WI-38 fibroblasts were collected and levels of HSV antigen were examined by ELISA (Premier™ HSV, Meridian Diagnostics Inc., Cincinnati, Ohio) according to the manufacturer's instructions. The primary antibody supplied with this ELISA kit recognizes HSV antigens of both virus types. The amount of HSV antigen, corresponding to levels in the inoculum, was subtracted as a blank value from experimental values reached upon virus propagation in host WI-38 cells. IC50 doses were estimated from dose-response curves plotted as a function of log concentrations of drugs.

[2] = tested on: HSV-2; test: as above; type: cell-based, herpes simplex virus type 2 (HSV-2)
Experimental: as §1, §2, §3

[3] = tested on: VR-734 strain of HSV-2; test: Protection of WI-38 fibroblasts against cytolytic action of HSV, MTS assay day 5; type: cell-based, herpes simplex virus type 2 (HSV-2); settings: day 5 postinfection, single dose
Experimental: Inoculated WI-38 cells were grown in the presence of ten-fold dilutions of gramicidin or ACV for five days until all untreated control cells were dead as a result of lytic HSV infection. The culture wells were then exposed for 4 hours to MTS tetrasolium salt and phenazine methosulfate preparation (Cell Titer^96, Promega, Madison, Wis.) and the optical density of formazan dye was measured in a plate reader at 450 nm with reference filter at 620 nm. The obtained values were then compared to both the absorbance values of dead cells and optical density of uninfected viable cells grown in the same plate. The percent of surviving WI-38 cells in drug-protected cultures was determined from dose-response curves as a function of log concentrations of test drugs.

[4] = tested on: WI-38 cells; test: Viability of WI-38 cells by MTS assay
Experimental: (§4) The effect of test compounds on cell viability was measured by two colorimetric assays as follows. WI-38 cells were grown in the presence or absence of ten-fold dilutions of gramicidin or ACV for two days. The cells were then exposed to MTS/phenazine methosulfate as described above. The conditions for the second, lactate dehydrogenase (LDH) assay, were similar to the MTS test except that a different cell viability parameter was measured. This assay quantitatively measures the stable cytosolic enzyme, LDH, that is released upon cell lysis in much the same way as ^51 Cr is released in radioactive assays. The results were evaluated using an enzymatic assay which measures the conversion of INT tetrazolium salt into red formazan product (CytoTox^96, Promega, Madison, Wis.). A standard 96-well plate reader was set to record wavelength absorbance at 490 nm. The residual LDH activity present in incubation medium was subtracted as a blank value. The amount of LDH released from drug-exposed cells was compared to untreated and detergent-lysed controls according to the formula provided by the manufacturer.

[5] = tested on: sperm motility; test: 2-minute sperm immobilization assay (sperm motility by CASA); type: cell-based, human; settings: for times higher dose required to achieve the effect of gramicidin: sperm motility, compounds alone
Experimental: The tests were conducted on unprocessed semen samples. […] Ejaculate samples from 3 normospermic volunteers were collected after 2-4 days of abstinence and allowed to liquefy for 20 minutes at 37° C. The sperm count was within the range of 60-240×10^6 cells/ml and the percentage of motile cells was over 50%. Serial dilutions of gramicidin, nonoxynol-9, EDTA or combinations thereof were mixed with fresh semen and sperm count, motility and morphology were assessed using computer-assisted semen analysis (CASA). Each 50 mcl sample of semen was mixed in a glass tube with predetermined concentration of test compounds, vortexed for 10 seconds, and left at room temperature for 2 minutes. Thereupon, a small 10 mcl portion of the sample was placed on a glass slide and motility of the sperm was evaluated automatically.

[6] = tested on: sperm penetration into lamb cervical mucus; test: Cervical mucus penetration assay; type: cell-based, human; settings: for motility of spermatozoa found in drug-pretreated mucus: at the time of observation, N9 even after 1 hour of incubation
Experimental: Glass capillary tubes (1 mm×100 mm) were filled with freshly collected lamb cervical mucus and placed vertically into solutions with test compounds as described earlier. After 30 minutes, incubation to allow the diffusion of drugs into mucus, the mucus-containing tubes were dipped vertically into cuvettes with the semen. After 15 minutes, the sperm that moved upwards from the bottom of the capillary tube was evaluated under microscope for traveled distance and the percent of motile sperm.

[7] = tested on: HSV type 1 and 2; test: HSV antigen ELISA, summary over HSV-1 and HSV-2 isolates; type: cell-based, herpes simplex viruses (HSV) type 1 and 2
[8] = tested on: WI-38 cells; test: LDH release from drug-exposed WI-38 cells; settings: 2 days of treatment, highest 10 mcg dose
Experimental: as §4

[9] = tested on: sperm viability; test: Tetrazolium dye reduction (XTT) assay on sperm; type: cell-based, human; settings: highest 100 mcg/ml concentration
Experimental: The spermatozoa from fertile donors are capable of nitroblue tetrazolium reduction in a same way as the fibroblasts in Example 1. Briefly, sperm were suspended in a 96-well plate in the presence of serial ten-fold dilutions of test compounds and each 180 mcl well received 20 mcl of XTT solution at final concentration 1 mg/ml of XTT (Sigma) with 1% w/v of PMS (Aldrich, Milwaukee, Wis.). Drug untreated spermatozoa served as positive viability references.
(§5) These two methods, XTT and LDH, were used simultaneously on the same semen samples to determine the toxic effect of gramicidin. Both quantitative tests, measuring two independent indicators of sperm viability, indicate that gramicidin is a potent nontoxic agent with antifertility potential.

[10] = tested on: sperm viability; test: Lactate dehydrogenase (LDH) release assay on sperm; type: cell-based, human; settings: high doses, serial dilutions 100 mcg-1 ng per ml
Source text: The disruption of the sperm membrane by N9-like detergents such as Triton X-100 or by gramicidin S leads to release of intracellular LDH isoenzymes or membrane-associated LDH-X, and an increase in LDH activity can be measured by assaying the supernatant of sperm suspension. The increase in LDH activity can be thus used as an indicator of drug toxicity since cytosolic LDH is released upon cell lysis in the same way as 51Cr is released in radioactive assays. The assay setting is similar to XTT assay and released LDH is quantitated with commercial enzymatic assay (CytoTox96, Promega, Madison, Wis.). An ordinary plate reader was used to record visible wavelength absorbance at 490 nm. The residual LDH activity usually present in seminal plasma or in incubation medium was subtracted as blank values and the % of toxicity was determined as directed by manufacturer's instruction. This assay is very sensitive and results are obtained within 30 minutes.
as §5

[11] = tested on: HIV; settings: 10 ng/ml; cited from earlier work
[12] = 0% EDTA, 2 minutes, unprocessed semen
[13] = 0.1% EDTA, 2 minutes, unprocessed semen

Which results are given for Nc1nc2c(ncn2COCCO)c(=O)[nH]1 [Acyclovir, [2-hydroxyethoxymethyl]guanine]?
IC50 ([1]; Human alphaherpesvirus 1, WI-38, read-out: IC50 by HSV antigen ELISA, HSV type 1 strain DM2.1, TK-): 77.3 µg/mL (≈ 343 µM); IC50 ([1]; Human alphaherpesvirus 1, WI-38, read-out: IC50 by HSV antigen ELISA, HSV type 1 strain KOS, ACV-sensitive): 0.4 µg/mL (≈ 1.78 µM); IC50 ([1]; Human alphaherpesvirus 1, WI-38, read-out: IC50 by HSV antigen ELISA, HSV type 1 strain PAAr, Polymerase-): 52.4 µg/mL (≈ 233 µM); IC50 ([2]; Human alphaherpesvirus 2, WI-38, 24 h, read-out: IC50 on HSV replication by antigen ELISA, VR-734 strain of HSV-2, WI-38 cells, day 1 postinfection): 0.2 µg/mL (≈ 0.888 µM); IC50 ([2]; Human alphaherpesvirus 2, WI-38, read-out: IC50 by HSV antigen ELISA, HSV type 2 strain 186, ACV-sensitive): 0.1 µg/mL (≈ 0.444 µM); IC50 ([2]; Human alphaherpesvirus 2, WI-38, read-out: IC50 by HSV antigen ELISA, HSV type 2 strain 8708, TK altered): 9.9 µg/mL (≈ 44 µM); IC50 ([2]; Human alphaherpesvirus 2, WI-38, read-out: IC50 by HSV antigen ELISA, HSV type 2 strain Kost, TK altered): 15.8 µg/mL (≈ 70.2 µM); IC50 ([2]; Human alphaherpesvirus 2, WI-38, read-out: IC50 by HSV antigen ELISA, HSV type 2 strain VR-734, ACV-sensitive): 0.2 µg/mL (≈ 0.888 µM); IC50 ([3]; Human alphaherpesvirus 2, WI-38, 120 h, read-out: IC50 for protection of WI-38 from cytolytic effect of HSV): 0.2 µg/mL (≈ 0.888 µM); toxicity to host WI-38 cells [4]: not toxic

With O=C(O)CN(CCN(CC(=O)O)CC(=O)O)CC(=O)O [EDTA, ethylenediaminetetraacetic acid] as the molecule, how does the “IC100 on sperm motility” value [5, 12] read?
The value was 5,000 mcg/ml.

And the “times higher dose required to achieve the effect of gramicidin” value [5]?
The value was no less than 1250 times.

And the “IC100 in cervical mucus penetration assay” value ([6]; 0% EDTA)?
The value was 1,200 mcg/ml.

Which results are given for CCCCCCCCCc1ccc(OCCOCCOCCOCCOCCOCCOCCOCCOCCO)cc1 [Nonoxynol-9, nonoxynol-9]?
enhancement in activity upon combination with EDTA [5]: less than a two-fold enhancement; IC100 on sperm motility [5, 12]: 200 µg/mL; IC100 on sperm motility [5, 13]: 125 µg/mL; effect on sperm motility ([5]; at 4 mcg/ml, 2 minutes): no effect; times higher dose required to achieve the effect of gramicidin [5]: At least 50 times; IC100 in cervical mucus penetration assay ([6]; 0% EDTA, no IC100 at the highest tested dose): > 1000 µg/mL; IC100 in cervical mucus penetration assay ([6]; 0.1% EDTA): 100 µg/mL; IC50 ([6]; Homo sapiens, Sperm, 0% EDTA, footnote: value represents IC50): 900 µg/mL (≈ 1460 µM); motility of spermatozoa found in drug-pretreated mucus [6]: retained motility

Which results are given for gramicidin D?
IC50 by HSV antigen ELISA ([1]; HSV type 1 strain DM2.1, TK-): 0.3 µg/mL; IC50 by HSV antigen ELISA ([1]; HSV type 1 strain KOS, ACV-sensitive): 0.2 µg/mL; IC50 by HSV antigen ELISA ([1]; HSV type 1 strain PAAr, Polymerase-): 0.4 µg/mL; IC50 by HSV antigen ELISA ([2]; HSV type 2 strain 186, ACV-sensitive): 0.1 µg/mL; IC50 by HSV antigen ELISA ([2]; HSV type 2 strain 8708, TK altered): 0.3 µg/mL; IC50 by HSV antigen ELISA ([2]; HSV type 2 strain Kost, TK altered): 0.2 µg/mL; IC50 by HSV antigen ELISA ([2]; HSV type 2 strain VR-734, ACV-sensitive): 0.3 µg/mL; IC50 on HSV replication by antigen ELISA ([2]; VR-734 strain of HSV-2, WI-38 cells, day 1 postinfection): 0.3 µg/mL; average 50% inhibitory dose (IC50) ([7]; average against 3 HSV-1 and 4 HSV-2 isolates): 0.3 µg/mL; IC50, reduction in viral yield by ELISA ([7]; both HSV type 1 and 2, 24 hours, range over isolates): 0.1 to 0.4 µg/mL; IC50 for protection of WI-38 from cytolytic effect of HSV [3]: 10 µg/mL; effect on viability (metabolic activity) of WI-38 cells ([4]; MTS, day 2, highest tested 10 mcg/ml dose): no significant effect; toxicity to host WI-38 cells ([4]; at concentrations that exceeded IC50 by at least two orders of magnitude): not toxic; excess LDH released, relative to baseline of untreated controls [8]: ≤ 15%; IC100 on sperm motility [5, 12]: 4 µg/mL; IC100 on sperm motility [5, 13]: 0.01 µg/mL; reversibility of effect on sperm motility ([5]; after washing sperm and resuspending in Earle's balanced salt solution): irreversible effect; times more potent than N9 ([5]; sperm immobilization, without EDTA): 50 times; IC100 on sperm motility ([5]; with 0.1% of EDTA): 0.01 µg/mL; IC100 in cervical mucus penetration assay ([6]; 0% EDTA): 3 µg/mL; IC100 in cervical mucus penetration assay ([6]; 0.1% EDTA): 0.001 µg/mL; motility of spermatozoa found in drug-pretreated mucus [6]: immotile; concentration that completely prevented penetration of sperm into mucus ([6]; with 0.1% of EDTA): 1 ng/mi; effect on mitochondrial hydrogenases of sperm (XTT) [9]: no effect; effect on LDH release from sperm [10]: negligible; activity against lab strains and clinical isolates of HIV [11]: active
